Consider 2 compounds from BindingDB's records for patent US12030880 (Chia Tai Tianqing Pharmaceutical Group, 2024).

What is called IC50 is the concentration that inhibits the measured activity by half.

For test [1], the target named is T1, Bromodomain-containing protein 4 [44-168] (Human, UniProt O60885).
T1 construct: 44-168
The test is described as follows: In Vitro BRD4 (BD1) Enzymatic Activity Assay. On the procedure: In the present application, IC50 values of the compounds in inhibiting BRD4 (BD1) enzyme binding reaction were determined by homogeneous time resolved fluorescence (HTRF). A compounds was serially diluted 5-fold with 100% DMSO starting from 0.2 mM (7 concentrations in total), and then 2 μL of the compound at each concentration was added to 48 μL of a reaction buffer (20 mM HEPES pH 7.5, 150 mM NaCl, 5 mM DTT, 0.005% Tween 20, and 100 μg/mL BSA) for dilution, and mixed well. 2.5 μL of the resulting mixture was added to a 384-well plate (OptiPlate-384, purchased from PerkinElmer), then 5 μL of GST-BRD4 (BD1, 44-168 aa) (final concentration: 1 nM) was added, and the resulting mixture was centrifuged, and fully mixed. 2.5 μL of a short peptide Biotin-AHA-SGRGK(Ac)GGK(Ac)GLGK(Ac)GGAK(Ac) RHRKV (final concentration: 100 nM) was then added to initiate the reaction (total reaction volume: 10 μL). […] After being incubated in the incubator for another 1 hour, the fluorescence values (excited at 320 nm, emitted light at 665 nm and 620 nm being detected, and the ratio of the two being the enzyme binding signal) were read on Envision (purchased from PerkinElmer).

Test [2] has as its target T2, Bromodomain-containing protein 4 [349-460] (Homo sapiens, UniProt O60885).
T2 construct: 349-460
Put plainly: In Vitro BRD4 (BD2) Enzymatic Activity Assay. On the procedure: In the present application, IC50 values of the compounds in inhibiting BRD4 (BD2) enzyme binding reaction were determined by homogeneous time resolved fluorescence (HTRF). A compound was serially diluted 5-fold with 100% DMSO starting from 1 mM (7 concentrations in total), and then 2 μL of the compound at each concentration was added to 18 μL of a reaction buffer (20 mM HEPES pH 7.5, 150 mM NaCl, 5 mM DTT, 0.005% Tween 20, and 100 μg/mL BSA) for dilution. After being mixed well, 2 μL of the compound at each concentration was added to 48 μL of the above reaction buffer for dilution, and mixed well (final concentration of the compound in DMSO: 0.1%). 2.5 μL of the resulting mixture was added to a 384-well plate (OptiPlate-384, purchased from PerkinElmer), then 5 μL of GST-BRD4 (BD2, 349-460 aa) (final concentration: 2 nM) was added, and the resulting mixture was centrifuged, and fully mixed. 2.5 μL of a peptide Biotin-AHA-SGRGK(Ac)GGK(Ac)GLGK(Ac)GGAK(Ac) RHRKV (final concentration: 200 nM) was then added to initiate the reaction (total reaction volume: 10 μL). […] After being incubated in the incubator for another 1 hour, the fluorescence values (excited at 320 nm, emitted light at 665 nm and 620 nm being detected, and the ratio of the two being the enzyme binding signal) were read on Envision (purchased from PerkinElmer).

As to `CCNC(=O)c1cc2c(-c3cc(N=S(C)(C)=O)ccc3Oc3ccc(S(C)(=O)=O)cc3)cn(C)c(=O)c2[nH]1` [US12030880, Example 1], the IC50 in test [1] is 14.7 nM; in test [2] it was 0.51 nM.

Consider `Cn1cc(-c2cc(N=S(C)(C)=O)ccc2Oc2ccc(C#N)cc2F)c2cc[nH]c2c1=O` [US12030880, Example 2], for which the IC50 in test [1] was found to be 1.4 nM; in test [2], 0.98 nM.
